Laboratory results published in US20250213627A1, “RECOMBINANT MICROORGANISM-BASED METHODS AND COMPOSITIONS FOR TREATMENT OF DISEASE” (Baylor College of Medicine, priority 2021, published 2025).

System: collagen-induced arthritis (CIA) in Lewis rats
Test: Collagen-induced arthritis (CIA) treatment trial
Format: in vivo, rat
Description: Starting at onset of clinical signs, four groups of rats received ˜1×10^9 CFU of either LrGusA or LrS235, both after SppIP induction for 2.5 hr, by daily oral gavage, or P6N vehicle or synthetic ShK-235 by injection in the scruff of the neck every other day.
Induction, monitoring, randomization, and treatment of rat collagen-induced arthritis. CIA was induced as described previously (46, 50). Briefly, female Lewis rats received a subcutaneous injection of 200 μl of a 1:1 emulsion of 2 mg/ml porcine type II collagen (20031, Chondrex, Redmond, WA) with incomplete Freund's adjuvant at the base of the tail. After 7 days, rats were given a booster of 100 μl of collagen and adjuvant emulsion. Disease onset was defined as the development of at least one swollen or red paw joint. Clinical scores were determined daily by assigning 1 point for each swollen or red toe joint, 2 points for mildly swollen wrist or ankle joints, and 5 points for each severely swollen wrist or ankle, giving each rat a maximum possible score of 60. Upon disease onset, rats were treated every other day by the subcutaneous injection of P6N buffer vehicle or 0.1 mg/kg ShK-235, or the oral gavage of 1×10^9 cfus LrGusA or 1×10^9 cfus LrS235 daily. CIA is more severe in rats with early disease onset. To avoid biasing results based on disease severity on the day each rat developed signs of disease and accounting for differences in the time between immunization and when a rat developed signs of illness, every rat that developed signs of disease on a given day was placed in a different treatment group to fill all groups in parallel.
Histology and micro-CT. Healthy rats and rats from the CIA trials were euthanized after 21 days of treatment, and their hind paws were collected and fixed in 10% buffered formalin. One paw from each rat was imaged by Micro-CT using a Bruker SkyScan 1272 Scanner set at 13 μm resolution with no filtering, no averaging, and a rotation step of 0.3. Raw images were analyzed with CTvox (Bruker, MA, US). The other hind paw was decalcified, embedded in paraffin, and sectioned. Slides were stained with either hematoxylin and eosin or Safranin O/Fast green and imaged at 4× magnification on a Nikon Ci-L bright-field microscope (Nikon Inc. NY, US). Scoring of the slides was completed by an investigator blinded to treatment groups using a comprehensive histological scoring system as described elsewhere (46, 51), in which cartilage degradation, cartilage erosion, angiogenesis, pannus formation, synovial hyperplasia, and synovial inflammation were evaluated by the following criteria: 0=absent, 1=mild, 2=moderate, 3=severe. The data were presented as mean±standard deviation.

CC[C@H](C)[C@@H]1NC(=O)[C@H](CO)NC(=O)[C@H](Cc2c[nH]cn2)NC(=O)[C@H](CCCCN)NC(=O)[C@@H]2CSSC[C@@H]3NC(=O)[C@H]([C@@H](C)O)NC(=O)[C@H](CCCCN)NC(=O)[C@H](CCCNC(=N)N)NC(=O)[C@H](CSSC[C@H](NC(=O)[C@H](CCCNC(=N)N)NC(=O)[C@H](CO)NC(=O)[C@H](CCCCN)NC(=O)[C@@H]4CCCN4C(=O)[C@H]([C@@H](C)CC)NC(=O)[C@H]([C@@H](C)O)NC(=O)[C@H](CC(=O)O)NC(=O)[C@H]([C@@H](C)CC)NC(=O)[C@@H](NC(=O)[C@H](CO)NC(=O)[C@@H](N)CCCNC(=N)N)CSSC[C@@H](C(=O)N[C@@H](C)C(=O)O)NC(=O)[C@H]([C@@H](C)O)NC(=O)CNC3=O)C(=O)N[C@@H]([C@@H](C)O)C(=O)N[C@@H](C)C(=O)N[C@@H](Cc3ccccc3)C(=O)N[C@@H](CCCCN)C(=O)N2)NC(=O)[C@H](Cc2ccccc2)NC(=O)[C@H](CO)NC(=O)[C@H](CC(C)C)NC(=O)[C@H](CCCNC(=N)N)NC(=O)[C@H](Cc2ccc(O)cc2)NC(=O)[C@H](CCCCN)NC1=O [ShK-235]
Mean clinical score of arthritis (21 days from onset, bacteria ~1×10^9 CFU daily oral gavage, synthetic ShK-235 0.1 mg/kg s.c. every other day, max score 60): 11±3 | Joint histology parameters (cartilage degradation and erosion, angiogenesis, pannus, synovial hyperplasia and inflammation) (end of trial): significantly reduced all parameters | Micro-CT imaging of hind limbs (bone erosion) (end of trial): better-preserved bones | Reduction of mean clinical score compared to vehicle control (same regimens as mean score): ~60%
